Read-outs that look alike come from different tables or passages of the source.
Assays:
[1] = tested on: LC3-II; assay: Ex vivo pressure-loaded retinas, Western blot of LC3-II; assay type: cell-based, rat; conditions: 10 mM 3-MA, 1 μM ent-AlloP, 75 mmHg
Description: (§1) Rat ex vivo Eyecup Preparation—Rat ex vivo eyecups were prepared from 28-32 day old male Sprague-Dawley rats (Charles River Laboratories International Inc., Wilmington, MA). The anterior half of the enucleated eyes was carefully removed to make eyecup preparations. Eyecups were placed at the bottom of a 100 ml glass beaker filled with aCSF (artificial cerebrospinal fluid) containing (in mM): 124 NaCl, 5 KCl, 2 MgSO4, 2 CaCl2, 1.25 NaH2PO4, 22 NaHCO3, and 10 glucose, and incubated at 30° C. for 24 hours using a closed pressure-loading system (FIG. 1C). pH was maintained at 7.35 to 7.40. In the closed-pressure system, a glass beaker with the eyecup was placed at the bottom of an acrylic pressure chamber (2,000 ml volume). A 95% O2-5% CO2 gas mixture was delivered through disposable plastic tubing with an infusion valve and a control dial on the lid of the pressure chamber and an air filter (Cat #SLGP033RS, Merck Millipore, Billerica, MA). The plastic tubing delivering the gas terminated 1 cm above the bottom of the beaker.
(§2) Acutely prepared eyecups were incubated in gassed aCSF for at least 1 h at 30° C. before pressure loading. In some experiments, AlloP (1 μM), ent-AlloP (1 μM), and 3-MA (10 mM) were dissolved in aCSF at the time of experiment and administered by bath perfusion. Eyecup preparations were treated with these drugs for 1 h at 30° C. before pressure loading. For pressure loading, the 95% O2-5% CO2 gas mixture was infused until the pressure reading given by a manometer reached the appropriate level. The pressure was then locked by adjusting the control dial of the effusion valve, and monitored continuously for 24 h at 30° C.
(§3) Western Blot Analysis—At the end of each experiment, the posterior segments of the eye were placed on a flat cutting surface and immersed in ice-cold aCSF. With a surgical blade, the retina was carefully and gently detached from the sclera with a fine forceps. The isolated retinas were frozen at −80° C. Retinas were then homogenized in lysis buffer solution (CelLytic MT; Sigma-Aldrich, Inc.) with protease inhibitor cocktail (Sigma-Aldrich, Inc.), prepared according to the manufacturer's instructions. The tissue extracts were ultrasonicated and clarified by centrifugation at 12,000 g for 20 minutes at 4° C. The protein concentrations in supernatants were assayed (Quant-iT assay kit; Invitrogen Corp., Carlsbad, CA). Twenty micrograms of retinal extract were subjected to SDS polyacrylamide gel electrophoretic analysis. The proteins were then transferred to a PVDF. Immunoblots by polyclonal rabbit anti-LC3B antibody (MBL Life Science) or anti-SQSTMl/p62 mouse monoclonal antibody (Abcam) were visualized using WesternBreeze Chemiluminescent Immunodetection system (Invitrogen) with the exposure time to autoradiograph film (MXJB Plus; Kodak, Rochester, NY) adjusted to avoid over- or undersaturation. Precision Plus Protein™ Western Standards (Bio-Rad, Hercules, CA) followed by Precision Protein™ strep Tactin-AP conjugate (Bio-Rad) was used for a molecular marker of LC3. MagicMark™ XP Western Protein Standard (Invitrogen, Carlsbad, CA) was used for a molecular marker of p62. Immunoblot data are normalized to β-actin levels in the same sample.
(§4) The density of Western blot bands was quantified using Image-Pro Plus software. Quantification was adjusted to protein expression at 10 mmHg after normalization to the β-actin band at each pressure, and the relative gray-scale value was calculated by densitometric analysis of the obtained bands. At least four independent experiments were performed for each condition, and the results are presented as relative units numerically. Differences in expression levels were evaluated using Wilcoxon Rank-Sum Test, Tukey's or Dunnett's multiple comparison test. Sample numbers were four to five per each experimental condition.

[2] = tested on: pressure-loaded ex vivo rat retinas; assay type: cell-based; conditions: for retinal morphology with 3-MA alone: 10 mM
Description: as §1, §2
Data analysis of morphometry—The middle portion of the retina was examined, greater than 1,200 μm away from the center of the optic disc along the inner limiting membrane (ILM). The nerve fiber layer thickness (NFLT) was measured by light microscopy along 5 lines perpendicular to the pigment epithelium at a distance of 15 μm from each other around 1,200 μm away from the center of the optic disc. The average NFLT was determined in 9 different light micrographs taken from 5 eyecup samples in each condition, divided by total retinal thickness, and mean±standard deviation (%) was analyzed and compared with control.
The density of degenerated cells characterized by nuclear chromatin clumping or necrosis in the GCL was determined by counting 9 fields of 500 μm length in light micrographs taken from the block of the middle retinal part 950 to 1450 μm away from the center of the optic disc.
The severity of neuronal damage was assessed by light microscopy using a neuronal damage score (NDS). The NDS was determined in 9 different light micrographs taken from 5 eyecup samples in each condition. The NDS rates neuronal damage in the inner nuclear layer (INL) and the inner plexiform layer (IPL) on a 0-4 scale with 0 signifying no neuronal damage and 4 indicating very severe damage. Criteria used in establishing the degree of neuronal damage included the extent of cytoplasmic swelling in the IPL and the number of neurons in the INL showing signs of severe cytoplasmic swelling and coarse clumping of nuclear chromatin. The highest NDS rating (4) is given when the IPL discloses apparent spongiform appearance due to dendritic swelling and when most cell bodies in the INL show severe cytoplasmic swelling and coarse clumping of nuclear chromatin. If the damage is of a lesser degree, a rating of 3 is given. NDS 2 is assigned when cell bodies in the INL are sporadically swollen. […] Fine dendritic swelling in a limited area of the IPL without damage in the INL is described by NDS 1.
NFLT, density of degenerated cells in the GCL, and NDS were determined as the measurement of 10 different areas from three eyes per experimental condition. These morphometrical parameters were assessed by three raters, who remained unaware of the experimental condition. […]

[3] = tested on: p62; assay: Ex vivo pressure-loaded retinas, Western blot of p62; assay type: cell-based, rat; conditions: 10 mM 3-MA, 1 μM ent-AlloP, 75 mmHg
Description: as §1, §2
as §3, with “MagicMark™ XP Western Protein Standard (Invitrogen, Carlsbad, CA) was used for a molecular marker of p62. Immunoblot data are normalized to β-actin levels in the same sample.” left out
as §4, with “At least four independent experiments were performed for each condition, and the results are presented as relative units numerically.” left out, “Sample numbers were four to five per each experimental condition.” left out

Molecule	effect of 3-MA on upregulation of LC3-II levels induced by ent-AlloP [1]	effect of 3-MA on neuroprotection by AlloP ([2]; 10 mM 3-MA + 1 μM AlloP, 75 mmHg)	effect of 3-MA on the effects of ent-AlloP ([2]; 10 mM 3-MA + 1 μM ent-AlloP, 75 mmHg)	retinal morphology with 3-MA alone ([2]; 10 mmHg)	retinal morphology with 3-MA alone ([2]; 75 mmHg)	effect of 3-MA on the decrease of p62 levels induced by ent-AlloP [3]	effect of picrotoxin on the neuroprotective effect of AlloP ([2]; 1 μM picrotoxin + 1 μM AlloP, hyperbaric conditions (75 mmHg))	effect of picrotoxin on the effects of ent-AlloP ([2]; 1 μM picrotoxin + 1 μM ent-AlloP, 75 mmHg)
Cn1cnc(N)c2ncnc1-2 [3-MA, 3-methyladenine]	dampened	did not alter neuroprotection by AlloP	dampened the effects of ent-AlloP	neurodegenerative	neurodegenerative	reversed		
picrotoxin							overcame the neuroprotective effect of AlloP	did not alter the effects of ent-AlloP

From US20240041898A9, “NEUROSTEROIDS AND ENANTIOMERS THEREOF FOR THE PREVENTION AND TREATMENT OF NEURODEGENERATIVE CONDITIONS” (priority 2019, published 2024)
